This note sets out measurements from PubChem BioAssay AID248 (DTP/NCI, 2004).

“And” between values parts separate entries of the source, which are not always exact repeats. Equal values may be shown once. Toxic doses and inconclusive results are not listed.

For the assay, the system named is L1210 leukemia ip in BDF1 mice, survival T/C. Nature of the assay: NCI In Vivo Anticancer Drug Screen. Data for tumor model L1210 Leukemia (intraperitoneal) in B6D2F1 (BDF1) mice. The settings on record: higher = longer survival. The procedure, abridged:
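Transplanted-tumor mice were given test agent; controls received vehicle only. Survival readings from the two groups were divided (treated over control).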

Where [1] appears, read: endpoint: mean survival time, dose: 100.0 mg/kg/injection, schedule: Q01DX009 (ip), vehicle: saline with Tween-80.
Where [2] appears, read: endpoint: mean survival time, dose: 200.0 mg/kg/injection, schedule: Q01DX009 (ip), vehicle: saline with Tween-80.
The mark [3] stands for this setting: endpoint: mean survival time, dose: 400.0 mg/kg/injection, schedule: Q01DX009 (ip), vehicle: saline with Tween-80.
The mark [4] stands for this setting: endpoint: mean survival time, dose: 100.0 mg/kg/injection, schedule: Q01DX009 (ip), vehicle: saline.
Setting [5] is: endpoint: mean survival time, dose: 100.0 mg/kg/injection, schedule: Q01DX001 (ip), vehicle: saline.
Where [6] appears, read: endpoint: mean survival time, dose: 200.0 mg/kg/injection, schedule: Q01DX001 (ip), vehicle: saline.
[7] abbreviates: endpoint: mean survival time, dose: 400.0 mg/kg/injection, schedule: Q01DX001 (ip), vehicle: saline.
Where [8] appears, read: endpoint: mean survival time, dose: 3.12 mg/kg/injection, schedule: Q01DX009 (ip), vehicle: Klucel (hydroxypropylcellulose) (HPC).
The mark [9] stands for this setting: endpoint: mean survival time, dose: 6.25 mg/kg/injection, schedule: Q01DX009 (ip), vehicle: Klucel (hydroxypropylcellulose) (HPC).
The mark [10] stands for this setting: endpoint: mean survival time, dose: 12.5 mg/kg/injection, schedule: Q01DX009 (ip), vehicle: Klucel (hydroxypropylcellulose) (HPC).
[11] abbreviates: endpoint: mean survival time, dose: 25.0 mg/kg/injection, schedule: Q01DX009 (ip), vehicle: Klucel (hydroxypropylcellulose) (HPC).

For `Cc1ccc(Nc2n[nH]c(=S)s2)cc1C`, the T/C was 93 % of control under setting [1], 92 % of control under setting [2] and 106 % of control under setting [3].

As to `O=C(OCC1OC(n2cnc3c(=S)nc[nH]c32)C(OC(=O)c2ccccc2)C1OC(=O)c1ccccc1)c1ccccc1` (configuration not stated), the T/C (endpoint: mean survival time, dose: 25.0 mg/kg/injection, schedule: Q01DX009 (ip), vehicle: saline) is 118 % of control; the T/C (endpoint: mean survival time, dose: 25.0 mg/kg/injection, schedule: Q01DX Z (ip), vehicle: saline) was 109 % of control; the T/C (endpoint: mean survival time, dose: 39.0 mg/kg/injection, schedule: Q01DX Z (ip), vehicle: carboxymethylcellulose (CMC)) was 124 % of control; the T/C (endpoint: mean survival time, dose: 50.0 mg/kg/injection, schedule: Q01DX Z (ip), vehicle: saline) is 117 % of control; the T/C (endpoint: mean survival time, dose: 88.0 mg/kg/injection, schedule: Q01DX Z (ip), vehicle: carboxymethylcellulose (CMC)) was 118 % of control; the T/C under setting [4] is 168 % of control. Moreover, the T/C (endpoint: mean survival time, dose: 110.0 mg/kg/injection, schedule: Q01DX009 (ip), vehicle: saline) is 123 % of control; the T/C (endpoint: mean survival time, dose: 220.0 mg/kg/injection, schedule: Q01DX009 (ip), vehicle: saline) was 150 % of control; the T/C (endpoint: mean survival time, dose: 222.0 mg/kg/injection, schedule: Q01DX Z (ip), vehicle: saline) was 95 % of control; the T/C (endpoint: mean survival time, dose: 300.0 mg/kg/injection, schedule: Q01DX Z (ip), vehicle: carboxymethylcellulose (CMC)) was 150 % of control and 168 % of control; the T/C (endpoint: mean survival time, dose: 300.0 mg/kg/injection, schedule: Q01DX Z (ip), vehicle: methylcellulose (MC)) is 112 % of control; the T/C (endpoint: mean survival time, dose: 450.0 mg/kg/injection, schedule: Q01DX Z (ip), vehicle: carboxymethylcellulose (CMC)) was 171 % of control. For the same molecule, the T/C runs as follows: (endpoint: mean survival time, dose: 450.0 mg/kg/injection, schedule: Q01DX Z (ip), vehicle: methylcellulose (MC)) 97 % of control; (endpoint: mean survival time, dose: 600.0 mg/kg/injection, schedule: Q01DX001 (ip), vehicle: saline) 120 % of control; (endpoint: mean survival time, dose: 675.0 mg/kg/injection, schedule: Q01DX Z (ip), vehicle: carboxymethylcellulose (CMC)) 100 % of control and 109 % of control; (endpoint: mean survival time, dose: 1007.0 mg/kg/injection, schedule: Q01DX Z (ip), vehicle: carboxymethylcellulose (CMC)) 93 % of control; (endpoint: mean survival time, dose: 1510.0 mg/kg/injection, schedule: Q01DX Z (ip), vehicle: carboxymethylcellulose (CMC)) 90 % of control.

Turning to `c1ccc2c(c1)oc1cc3ccncc3cc12`, the T/C by setting is: under setting [5], 96 % of control; under setting [6], 94 % of control; under setting [7], 102 % of control.

As to `N#CC(C#N)=Cc1ccc([N+](=O)[O-])o1`, the T/C (endpoint: mean survival time, dose: 1.56 mg/kg/injection, schedule: Q04DX003 (ip), vehicle: saline) is 103 % of control; the T/C under setting [8] was 103 % of control; the T/C (endpoint: mean survival time, dose: 3.12 mg/kg/injection, schedule: Q04DX003 (ip), vehicle: saline) is 92 % of control; the T/C under setting [9] was 104 % of control; the T/C (endpoint: mean survival time, dose: 6.25 mg/kg/injection, schedule: Q04DX003 (ip), vehicle: saline) is 103 % of control.

For `CC(C)CCOc1ccc(N)c([N+](=O)[O-])c1`, the T/C runs as follows: (endpoint: mean survival time, dose: 6.25 mg/kg/injection, schedule: Q01DX009 (ip), vehicle: saline with Tween-80) 105 % of control; (endpoint: mean survival time, dose: 12.5 mg/kg/injection, schedule: Q01DX009 (ip), vehicle: saline with Tween-80) 100 % of control; (endpoint: mean survival time, dose: 25.0 mg/kg/injection, schedule: Q01DX009 (ip), vehicle: saline with Tween-80) 103 % of control; (endpoint: mean survival time, dose: 50.0 mg/kg/injection, schedule: Q01DX009 (ip), vehicle: saline with Tween-80) 94 % of control; (endpoint: mean survival time, dose: 100.0 mg/kg/injection, schedule: Q04DX003 (ip), vehicle: saline with Tween-80) 97 % of control; (endpoint: mean survival time, dose: 200.0 mg/kg/injection, schedule: Q04DX003 (ip), vehicle: saline with Tween-80) 100 % of control.

Consider `CCOP(=S)(OCC)S/C(C(=O)NC)=C(/C)O`, for which the T/C is 94 % of control under setting [9]; 97 % of control under setting [10]; 103 % of control (endpoint: mean survival time, dose: 100.0 mg/kg/injection, schedule: Q04DX003 (sc), vehicle: olive oil, sesame oil, peanut oil); 106 % of control (endpoint: mean survival time, dose: 200.0 mg/kg/injection, schedule: Q04DX003 (sc), vehicle: olive oil, sesame oil, peanut oil).

On to `Nc1nc(N)c2cc(S(=O)(=O)c3ccccc3)ccc2n1`, for which the T/C (endpoint: median survival time, dose: 25.0 mg/kg/injection, schedule: Q01DX009 (ip), vehicle: saline with Tween-80) was 110 % of control; the T/C (endpoint: median survival time, dose: 400.0 mg/kg/injection, schedule: Q01DX009 (ip), vehicle: saline with Tween-80) is 108 % of control; the T/C (endpoint: median survival time, dose: 800.0 mg/kg/injection, schedule: Q01DX009 (ip), vehicle: saline with Tween-80) was 117 % of control.

`Cc1onc(-c2ccccc2Cl)c1C(=O)NC(N)=S`: the T/C is, setting by setting: under setting [4], 103 % of control; (endpoint: mean survival time, dose: 200.0 mg/kg/injection, schedule: Q01DX009 (ip), vehicle: saline) 101 % of control; (endpoint: mean survival time, dose: 400.0 mg/kg/injection, schedule: Q01DX009 (ip), vehicle: saline) 104 % of control.

Regarding `O=P(c1ccc(F)cc1)(c1ccc(F)cc1)c1ccc(F)cc1`, the T/C is, setting by setting: under setting [10], 101 % of control; under setting [11], 103 % of control.

For the molecule `Cc1nc(NCc2ccccc2)c2cc[nH]c2n1`, the T/C reads like this: (endpoint: mean survival time, dose: 1.56 mg/kg/injection, schedule: Q01DX009 (ip), vehicle: Klucel (hydroxypropylcellulose) (HPC)) 104 % of control and 111 % of control; under setting [8], 96 % of control and 105 % of control; (endpoint: mean survival time, dose: 3.12 mg/kg/injection, schedule: Q04DX003 (ip), vehicle: Klucel (hydroxypropylcellulose) (HPC)) 106 % of control; (endpoint: mean survival time, dose: 5.0 mg/kg/injection, schedule: Q01DX001 (ip), vehicle: saline) 104 % of control; under setting [9], 103 % of control and 110 % of control; (endpoint: mean survival time, dose: 6.25 mg/kg/injection, schedule: Q04DX003 (ip), vehicle: Klucel (hydroxypropylcellulose) (HPC)) 103 % of control. For the same molecule, the T/C reads like this: (endpoint: mean survival time, dose: 10.0 mg/kg/injection, schedule: Q01DX001 (ip), vehicle: saline) 104 % of control; under setting [10], 100 % of control and 105 % of control; (endpoint: mean survival time, dose: 12.5 mg/kg/injection, schedule: Q04DX003 (ip), vehicle: Klucel (hydroxypropylcellulose) (HPC)) 111 % of control; (endpoint: mean survival time, dose: 20.0 mg/kg/injection, schedule: Q01DX001 (ip), vehicle: saline) 116 % of control; under setting [11], 93 % of control and 97 % of control; (endpoint: mean survival time, dose: 25.0 mg/kg/injection, schedule: Q04DX003 (ip), vehicle: Klucel (hydroxypropylcellulose) (HPC)) 103 % of control. For the same molecule, the T/C runs as follows: (endpoint: mean survival time, dose: 40.0 mg/kg/injection, schedule: Q01DX001 (ip), vehicle: saline) 104 % of control; (endpoint: mean survival time, dose: 80.0 mg/kg/injection, schedule: Q01DX001 (ip), vehicle: saline) 110 % of control.

Turning to `O=C1c2ccccc2C(=O)c2cc3nc4c5ccccc5c5ccccc5c4nc3cc21`, the T/C under setting [1] was 93 % of control; the T/C (endpoint: mean survival time, dose: 100.0 mg/kg/injection, schedule: Q04DX002 (ip), vehicle: saline with Tween-80) is 103 % of control; the T/C under setting [2] was 90 % of control; the T/C (endpoint: mean survival time, dose: 200.0 mg/kg/injection, schedule: Q04DX002 (ip), vehicle: saline with Tween-80) was 97 % of control; the T/C under setting [3] is 97 % of control; the T/C (endpoint: mean survival time, dose: 400.0 mg/kg/injection, schedule: Q04DX002 (ip), vehicle: saline with Tween-80) was 100 % of control.

With `Cc1c(C(=O)NN)no[n+]1[O-]`, the T/C (endpoint: mean survival time, dose: 25.0 mg/kg/injection, schedule: Q04DX002 (ip), vehicle: Klucel (hydroxypropylcellulose) (HPC)) was 96 % of control; the T/C (endpoint: mean survival time, dose: 50.0 mg/kg/injection, schedule: Q04DX002 (ip), vehicle: Klucel (hydroxypropylcellulose) (HPC)) was 93 % of control; the T/C (endpoint: mean survival time, dose: 100.0 mg/kg/injection, schedule: Q04DX002 (ip), vehicle: Klucel (hydroxypropylcellulose) (HPC)) is 93 % of control.

Turning to `O=C(CC1CCCCC1O)Nc1ccccc1` (configuration not stated), the T/C was 97 % of control (endpoint: mean survival time, dose: 50.0 mg/kg/injection, schedule: Q01DX001 (ip), vehicle: saline); 95 % of control under setting [5]; 101 % of control under setting [6]; 97 % of control under setting [7].

Turning to `O=C(NCCCCC(NC(=O)c1ccccc1)C(=O)NCCCCCCNCCCCCCNC(=O)C(CCCCNC(=O)c1ccccc1)NC(=O)c1ccccc1)c1ccccc1` (configuration not stated), the T/C is 96 % of control (endpoint: mean survival time, dose: 10.0 mg/kg/injection, schedule: Q01DX Z (ip), vehicle: saline); 102 % of control (endpoint: mean survival time, dose: 30.0 mg/kg/injection, schedule: Q01DX Z (ip), vehicle: saline); 100 % of control (endpoint: mean survival time, dose: 100.0 mg/kg/injection, schedule: Q01DX Z (ip), vehicle: saline); 100 % of control (endpoint: mean survival time, dose: 300.0 mg/kg/injection, schedule: Q01DX Z (ip), vehicle: saline).
